Results reported in ChEMBL document CHEMBL3885881, “DrugMatrix”.

Species on record: Rattus norvegicus
Assay: DrugMatrix - Regimen: Daily Repeat
Format: toxicity, organism-based, Sprague-Dawley
Set-up: regimen Daily Repeat, gender Male, age 6-8 weeks
Details: in vivo, po, route oral GAVAGE, […]; for ABSOLUTE BASOPHIL / ABSOLUTE EOSINOPHIL / ABSOLUTE LYMPHOCYTE / ABSOLUTE MONOCYTE / ABSOLUTE SEGMENTED NEUTROPHIL / BASOPHIL / EOSINOPHIL / HEMATOCRIT / HEMOGLOBIN / LEUKOCYTE COUNT / LYMPHOCYTE / MEAN CORPUSCULAR HEMOGLOBIN / MEAN CORPUSCULAR HEMOGLOBIN CONCENTRATION / MEAN CORPUSCULAR VOLUME / MONOCYTE / NEUTROPHIL / NUCLEATED RED BLOOD CELLS / PLATELET COUNT: tissue Blood; for ALANINE AMINOTRANSFERASE / ALBUMIN / ALKALINE PHOSPHATASE / ASPARTATE AMINOTRANSFERASE / BLOOD UREA NITROGEN / CARBON DIOXIDE / CHLORIDE / CHOLESTEROL / CREATINE PHOSPHOKINASE / CREATININE / GLUCOSE / LACTATE DEHYDROGENASE / LIPASE / PHOSPHORUS / POTASSIUM / SODIUM / TOTAL BILIRUBIN / TOTAL PROTEIN / URIC ACID: tissue Plasma
[1] = 1 mg/kg, 72 h, dose level Low, time 3 day
[2] = 1 mg/kg, 120 h, dose level Low, time 5 day
[3] = 21 mg/kg, 72 h, dose level High, time 3 day
[4] = 21 mg/kg, 120 h, dose level High, time 5 day

O=C(CCCN1CCC(O)(c2ccc(Cl)cc2)CC1)c1ccc(F)cc1 [HALOPERIDOL]
ABSOLUTE BASOPHIL [1]: 0 CELLS/uL | ABSOLUTE EOSINOPHIL [1]: 94.33 CELLS/uL | ABSOLUTE LYMPHOCYTE [1]: 11131.67 CELLS/uL | ABSOLUTE MONOCYTE [1]: 120.67 CELLS/uL | ABSOLUTE SEGMENTED NEUTROPHIL [1]: 1053.33 CELLS/uL | BASOPHIL [1]: 0% | EOSINOPHIL [1]: 0.67% | HEMATOCRIT [1]: 33.6% | HEMOGLOBIN [1]: 13.7 G/DL | LEUKOCYTE COUNT [1]: 12.4 x10E3/uL | LYMPHOCYTE [1]: 88.33% | MEAN CORPUSCULAR HEMOGLOBIN [1]: 25.53 pg | MEAN CORPUSCULAR HEMOGLOBIN CONCENTRATION [1]: 40.8 G/DL | MEAN CORPUSCULAR VOLUME [1]: 62.6 fL | MONOCYTE [1]: 1% | NEUTROPHIL [1]: 10% | NUCLEATED RED BLOOD CELLS [1]: 0 /100WBC | PLATELET COUNT [1]: 969 x10E3/uL | ALANINE AMINOTRANSFERASE [1]: 88.67 u/L | ALBUMIN [1]: 3.97 G/DL | ALKALINE PHOSPHATASE [1]: 450 u/L | ASPARTATE AMINOTRANSFERASE [1]: 97.33 u/L | BLOOD UREA NITROGEN [1]: 12.33 mg/dL | CARBON DIOXIDE [1]: 31.67 mmol/L | CHLORIDE [1]: 97 MEQ/L | CHOLESTEROL [1]: 75.67 mg/dL | CREATINE PHOSPHOKINASE [1]: 318.67 u/L | CREATININE [1]: 0.13 mg/dL | GLUCOSE [1]: 163.67 mg/dL | LACTATE DEHYDROGENASE [1]: 170 u/L | LIPASE [1]: 15 u/L | PHOSPHORUS [1]: 11.33 mg/dL | POTASSIUM [1]: 6.08 MEQ/L | SODIUM [1]: 142.45 MEQ/L | TOTAL BILIRUBIN [1]: 0.17 mg/dL | TOTAL PROTEIN [1]: 5.67 G/DL | URIC ACID [1]: 1 mg/dL | ABSOLUTE BASOPHIL [2]: 0 CELLS/uL | ABSOLUTE EOSINOPHIL [2]: 0 CELLS/uL | ABSOLUTE LYMPHOCYTE [2]: 12900 CELLS/uL | ABSOLUTE MONOCYTE [2]: 131.67 CELLS/uL | ABSOLUTE SEGMENTED NEUTROPHIL [2]: 1068.33 CELLS/uL | BASOPHIL [2]: 0% | EOSINOPHIL [2]: 0% | HEMATOCRIT [2]: 34.63% | HEMOGLOBIN [2]: 14.03 G/DL | LEUKOCYTE COUNT [2]: 14.1 x10E3/uL | LYMPHOCYTE [2]: 91.67% | MEAN CORPUSCULAR HEMOGLOBIN [2]: 25.73 pg | MEAN CORPUSCULAR HEMOGLOBIN CONCENTRATION [2]: 40.5 G/DL | MEAN CORPUSCULAR VOLUME [2]: 63.57 fL | MONOCYTE [2]: 1% | NEUTROPHIL [2]: 7.33% | NUCLEATED RED BLOOD CELLS [2]: 0 /100WBC | PLATELET COUNT [2]: 1083 x10E3/uL | ALANINE AMINOTRANSFERASE [2]: 51 u/L | ALBUMIN [2]: 4.17 G/DL | ALKALINE PHOSPHATASE [2]: 383.33 u/L | ASPARTATE AMINOTRANSFERASE [2]: 81.33 u/L | BLOOD UREA NITROGEN [2]: 16.33 mg/dL | CARBON DIOXIDE [2]: 25.67 mmol/L | CHLORIDE [2]: 102 MEQ/L | CHOLESTEROL [2]: 77.33 mg/dL | CREATINE PHOSPHOKINASE [2]: 323.67 u/L | CREATININE [2]: 0.18 mg/dL | GLUCOSE [2]: 144 mg/dL | LACTATE DEHYDROGENASE [2]: 223.33 u/L | LIPASE [2]: 11.33 u/L | PHOSPHORUS [2]: 10.8 mg/dL | POTASSIUM [2]: 6.15 MEQ/L | SODIUM [2]: 143.13 MEQ/L | TOTAL BILIRUBIN [2]: 0.17 mg/dL | TOTAL PROTEIN [2]: 5.77 G/DL | URIC ACID [2]: 1.17 mg/dL | ABSOLUTE BASOPHIL [3]: 0 CELLS/uL | ABSOLUTE EOSINOPHIL [3]: 71.67 CELLS/uL | ABSOLUTE LYMPHOCYTE [3]: 13503.67 CELLS/uL | ABSOLUTE MONOCYTE [3]: 143.33 CELLS/uL | ABSOLUTE SEGMENTED NEUTROPHIL [3]: 1014.67 CELLS/uL | BASOPHIL [3]: 0% | EOSINOPHIL [3]: 0.33% | HEMATOCRIT [3]: 37.23% | HEMOGLOBIN [3]: 14.77 G/DL | LEUKOCYTE COUNT [3]: 14.73 x10E3/uL | LYMPHOCYTE [3]: 92.33% | MEAN CORPUSCULAR HEMOGLOBIN [3]: 23.97 pg | MEAN CORPUSCULAR HEMOGLOBIN CONCENTRATION [3]: 39.67 G/DL | MEAN CORPUSCULAR VOLUME [3]: 60.4 fL | MONOCYTE [3]: 0.67% | NEUTROPHIL [3]: 6.67% | NUCLEATED RED BLOOD CELLS [3]: 0 /100WBC | PLATELET COUNT [3]: 1422.33 x10E3/uL | ALANINE AMINOTRANSFERASE [3]: 42.33 u/L | ALBUMIN [3]: 4.2 G/DL | ALKALINE PHOSPHATASE [3]: 358.33 u/L | ASPARTATE AMINOTRANSFERASE [3]: 92.33 u/L | BLOOD UREA NITROGEN [3]: 16.33 mg/dL | CARBON DIOXIDE [3]: 22.67 mmol/L | CHLORIDE [3]: 103.67 MEQ/L | CHOLESTEROL [3]: 58 mg/dL | CREATINE PHOSPHOKINASE [3]: 803 u/L | CREATININE [3]: 0.18 mg/dL | GLUCOSE [3]: 168 mg/dL | LACTATE DEHYDROGENASE [3]: 310 u/L | LIPASE [3]: 11.33 u/L | PHOSPHORUS [3]: 12.4 mg/dL | POTASSIUM [3]: 6.38 MEQ/L | SODIUM [3]: 143.4 MEQ/L | TOTAL BILIRUBIN [3]: 0.13 mg/dL | TOTAL PROTEIN [3]: 5.9 G/DL | URIC ACID [3]: 2.07 mg/dL | ABSOLUTE BASOPHIL [4]: 0 CELLS/uL | ABSOLUTE EOSINOPHIL [4]: 46.33 CELLS/uL | ABSOLUTE LYMPHOCYTE [4]: 13529.67 CELLS/uL | ABSOLUTE MONOCYTE [4]: 94 CELLS/uL | ABSOLUTE SEGMENTED NEUTROPHIL [4]: 1530 CELLS/uL | BASOPHIL [4]: 0% | EOSINOPHIL [4]: 0.33% | HEMATOCRIT [4]: 35.97% | HEMOGLOBIN [4]: 14.07 G/DL | LEUKOCYTE COUNT [4]: 15.2 x10E3/uL | LYMPHOCYTE [4]: 88.67% | MEAN CORPUSCULAR HEMOGLOBIN [4]: 23.57 pg | MEAN CORPUSCULAR HEMOGLOBIN CONCENTRATION [4]: 39.13 G/DL | MEAN CORPUSCULAR VOLUME [4]: 60.3 fL | MONOCYTE [4]: 0.67% | NEUTROPHIL [4]: 10.33% | NUCLEATED RED BLOOD CELLS [4]: 0.33 /100WBC | PLATELET COUNT [4]: 1209.33 x10E3/uL | ALANINE AMINOTRANSFERASE [4]: 53 u/L | ALBUMIN [4]: 4.13 G/DL | ALKALINE PHOSPHATASE [4]: 352.33 u/L | ASPARTATE AMINOTRANSFERASE [4]: 80.33 u/L | BLOOD UREA NITROGEN [4]: 17.33 mg/dL | CARBON DIOXIDE [4]: 23 mmol/L | CHLORIDE [4]: 103.33 MEQ/L | CHOLESTEROL [4]: 69 mg/dL | CREATINE PHOSPHOKINASE [4]: 224.67 u/L | CREATININE [4]: 0.18 mg/dL | GLUCOSE [4]: 201.67 mg/dL | LACTATE DEHYDROGENASE [4]: 239 u/L | LIPASE [4]: 11.33 u/L | PHOSPHORUS [4]: 11.33 mg/dL | POTASSIUM [4]: 6.19 MEQ/L | SODIUM [4]: 143.37 MEQ/L | TOTAL BILIRUBIN [4]: 0.2 mg/dL | TOTAL PROTEIN [4]: 5.63 G/DL | URIC ACID [4]: 1.4 mg/dL
